Reference: patent US11453632B2, “1-phenyl-2-phenylethane derivative” (KAO CORPORATION, priority 2018, dated 2022)

Tests used:
[1] = tested on: prostate of testosterone-induced prostatic hyperplasia rat; assay: Efficacy on prostate in testosterone-induced prostatic hyperplasia rat; assay type: in vivo; settings: testosterone 3 mg/kg/day plus test substance 0.1 or 1 mg/kg body weight/day, subcutaneous osmotic pump, 28 days, vs testosterone alone
Description: 12-week-old male Slc:SD (SPF) rats were obtained from Japan SLC, Inc. An acclimatization period was established for 1 week after receipt. During the acclimatization period, the rats were allowed to freely ingest a powder diet (AIN-93G).
2) Implantation of Osmotic Pump
After body weight measurement, back hair was shaved under isoflurane (AbbVie GK) inhalation anesthesia, and carprofen was subcutaneously administered to the rats. Then, an incision of approximately 1 cm at the maximum was made on the cranial side in the back. An osmotic minipump Alzet (Muromachi Kikai Co., Ltd.) containing testosterone and compound 17-F or finasteride (Sigma-Aldrich Co. LLC) was subcutaneously implanted. From this osmotic pump, testosterone (3 mg/kg body weight/day) (Sigma-Aldrich Co. LLC) and compound 17-F (0.1 mg/body weight/day or 1 mg/kg body weight/day) or finasteride (0.1 mg/kg body weight/day or 1 mg/kg body weight/day) were continuously administered for 28 days. Since the implantation of the osmotic pump, the rats were allowed to freely ingest customized feed AIN-93G (Oriental Yeast Co., Ltd.) free from components derived from soybeans.
3) Photographing of Skin and Harvesting of Prostate
After a lapse of 28 days, body weights were measured, and subsequently, the rats were euthanized by blood letting under isoflurane anesthesia. Back hair was shaved, followed by photographing. Then, the abdominal cavity was opened to harvest the prostate on the ventral side. Wet weights were measured.

ERβ = target: T1, ERβ (Homo sapiens, UniProt Q92731); assay: Ability to activate transcription mediated by ERβ (pcDNA3-ERβ, pERE luciferase, HEK293 cells); assay type: cell-based; settings: negative control 0.001475
T1 construct: host or cells: HEK293
T1 sequence (Q92731 whole entry): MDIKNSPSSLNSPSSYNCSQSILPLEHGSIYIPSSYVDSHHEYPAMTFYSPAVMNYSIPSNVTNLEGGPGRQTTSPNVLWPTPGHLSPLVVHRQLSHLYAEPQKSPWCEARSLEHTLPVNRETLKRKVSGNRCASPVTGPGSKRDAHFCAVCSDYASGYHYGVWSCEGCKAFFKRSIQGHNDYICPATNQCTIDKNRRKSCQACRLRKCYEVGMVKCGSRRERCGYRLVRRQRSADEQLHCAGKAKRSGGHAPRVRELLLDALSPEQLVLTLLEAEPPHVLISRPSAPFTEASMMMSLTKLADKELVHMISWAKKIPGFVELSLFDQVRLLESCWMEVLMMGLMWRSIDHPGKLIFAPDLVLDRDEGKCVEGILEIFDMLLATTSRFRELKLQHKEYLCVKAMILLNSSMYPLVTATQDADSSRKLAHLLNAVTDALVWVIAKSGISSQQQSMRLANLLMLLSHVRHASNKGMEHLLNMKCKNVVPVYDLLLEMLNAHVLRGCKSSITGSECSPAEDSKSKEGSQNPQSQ
Method: 1) Experimental Method (Measurement of Transcriptional Activity Mediated by ERs)
HEK293 cells were inoculated at a cell density of 4.0×10^4 cells/well to a 96-well plate. After 12 hours therefrom, the medium was replaced with a culture solution (DMEM containing 5% (v/v) charcoal-treated serum). The cells were cotransfected with pcDNA3-ERα or pcDNA3-ERβ (Promega Corp.) and pERE and pRL-CMV (Promega Corp.) using Lipofectamine 2000 (Invitrogen Corp.) according to the protocol attached to the product. 24 hours after transfection, the medium was replaced with a culture medium containing a test sample, followed by culture for another 24 hours. Then, luciferase activity was measured using Dual-Glo™ Luciferase Assay System (Promega Corp.) according to the attached protocol. The luminescence intensity of firefly luciferase (index for the ability to activate transcription mediated by ERE) was divided by the luminescence intensity of Renilla reniformis luciferase (index for the transfection efficiency of the plasmids) to calculate a relative light unit (RLU).

[2] = tested on: uterus of ovariectomized rat; assay: Uterus weight in ovariectomized (OVX) rat; assay type: in vivo
Method: (§1) 8-week-old female Crl:CD (SD) rats were obtained from Charles River Laboratories Japan, Inc. and individually identified by the ear punching method on the receipt date. Then, an acclimatization period was established for 1 week. The animals were raised in a rearing room under a set environment involving a temperature of 22±3° C., a humidity of 50±20%, air ventilation from 13 to 17 times/hour, and a lighting time from 8:00 to 20:00. During the acclimatization period, the rats were allowed to freely ingest solid feed CRF-1 (Oriental Yeast Co., Ltd.). Since the feeding with CRF-1, the rats were allowed to freely ingest customized feed AIN-93G (Oriental Yeast Co., Ltd.) free from components derived from soybeans.
(§2) On the end date of acclimatization and the following day, the flank cavity was opened under isoflurane anesthesia to harvest the right and left ovaries including fallopian tubes. Other non-OVX rats were subjected to only opening and suture (sham surgery). Immediately thereafter, an antibiotic was subcutaneously administered at a dose of 100 μl/animal. After the surgery, the sham surgery or OVX animals were given customized feed and raised for approximately 1 week.
From 1.5 hours before a shift from the light phase to the dark phase (18:30), a negative solvent (DMSO) or a test substance was subcutaneously administered at a dose of 0.5 ml/kg to the back of the neck according to Table 3 described below using a syringe and an injection needle.
After the completion of all procedures of measurement and analysis, the rats were euthanized by blood letting under isoflurane anesthesia, and the uterus was harvested. Wet weights were measured.
(§3) Skin temperatures differed largely among individuals, and the Smirnov-Grubbs test was conducted in order to exclude outliers beforehand. Results of measuring tail skin temperatures and results of measuring uterus weights were statistically analyzed by testing using the Dunnett's test.

[3] = tested on: tail skin temperature of ovariectomized rat; assay: Tail skin temperature in ovariectomized (OVX) rat; assay type: in vivo
Method: as §1
1-2) Sham Surgery and Oophorectomy Surgery (OVX)
as §2
1-3) Acclimatization to Skin Temperature Measurement Environment […]
Before administration of a test substance and from 12:00 to 3:00 (dark phase) of 3, 5, 7, 14, and 21 days after the start of administration, the rats were placed in restrainers without anesthesia, and skin temperatures were measured at a site 3 cm on the tip side from the tail root using the infrared radiation thermometer. […]
as §3

In the case of Oc1ccc(CC(C=C(F)F)c2ccc(O)cc2F)c(F)c1 (stereo not drawn) [Compound 17-F, 4,4′-(4,4-difluorobut-3-ene-1,2-diyl)bis(3-fluorophenol)], the “size of the prostate (visual, FIG. 1)” value [1] is reported as “Concentration-dependent decrease in the size of the prostate”, the “weight of the prostate corrected with the body weight (FIG. 2)” value [1] is reported as “decreased to almost the same level as in the DMSO administration group” and the “relative light unit (RLU), transcription activation ERβ” value (“relative light unit (RLU)” below) (ERβ; 0.01 pM) is reported as 0.002468. The “relative light unit (RLU)” value (ERβ; 0.1 pM) was 0.004255, the “relative light unit (RLU)” value (ERβ; 1 pM) was 0.01104 and the “relative light unit (RLU)” value (ERβ; 10 pM) was 0.03023. The “relative light unit (RLU)” value (ERβ; 100 pM) was 0.03238, the “relative light unit (RLU)” value (ERβ; 1000 pM) was 0.03342 and the “relative light unit (RLU)” value (ERβ; 10000 pM) was 0.03507. For the same compound, the “uterus wet weight (FIG. 6)” value ([2]; 4 μg/kg/day subcutaneous, vs negative solvent group) was “no change in uterus weight was confirmed”, the “uterus wet weight (FIG. 6)” value ([2]; increased dose of compound 17-F (40, 400 μg/kg/day) subcutaneous) was “elevated in a concentration-dependent manner” and the “tail skin temperature, raw value and changed temperature from the initial value” ([3]; 4, 40, and 400 μg/kg subcutaneous, 3 days after the start of administration, vs negative solvent) was “confirmed to decrease”. For the same compound, the “tail skin temperature, drug efficacy” value ([3]; subcutaneous, 5 days after the start of administration) was “temporarily disappeared”, the “tail skin temperature, raw value and changed temperature” value ([3]; subcutaneous, 7 days after the start of administration) was “confirmed to decrease again” and the melting point was 90 to 91 °C.
